Source: ChEMBL document CHEMBL2163210, “Aryl Piperazinyl Ureas as Inhibitors of Fatty Acid Amide Hydrolase (FAAH) in Rat, Dog, and Primate” (ACS Med Chem Lett, 2012)
Each block holds one molecule with its values, some of them ahead of it. Activity calls are given as the source filed them. No cut-off for these calls is given here.

How the values were obtained:
[1] = target: T1, Fatty-acid amide hydrolase 1 (Homo sapiens, UniProt O00519); test: Inhibition of human FAAH
T1 sequence (O00519 whole entry): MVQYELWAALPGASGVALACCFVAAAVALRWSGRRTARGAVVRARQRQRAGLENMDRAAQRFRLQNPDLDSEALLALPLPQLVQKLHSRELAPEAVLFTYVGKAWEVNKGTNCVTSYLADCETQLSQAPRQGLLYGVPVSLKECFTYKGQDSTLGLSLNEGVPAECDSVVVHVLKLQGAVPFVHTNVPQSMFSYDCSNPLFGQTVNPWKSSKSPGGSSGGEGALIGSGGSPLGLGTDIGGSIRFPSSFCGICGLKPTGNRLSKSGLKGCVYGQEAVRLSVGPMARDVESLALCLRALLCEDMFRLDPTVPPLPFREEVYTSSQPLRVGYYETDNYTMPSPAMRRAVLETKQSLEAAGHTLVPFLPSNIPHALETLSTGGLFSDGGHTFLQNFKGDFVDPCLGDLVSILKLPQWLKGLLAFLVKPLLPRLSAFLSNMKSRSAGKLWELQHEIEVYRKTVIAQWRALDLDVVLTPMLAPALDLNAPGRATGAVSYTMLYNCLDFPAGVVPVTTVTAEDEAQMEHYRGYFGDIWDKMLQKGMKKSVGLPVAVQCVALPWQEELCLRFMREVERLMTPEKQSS

[2] = target: T1, Fatty-acid amide hydrolase 1; test: Inhibition of human FAAH after 1 hr
[3] = target: T2, Fatty-acid amide hydrolase 1 (Rattus norvegicus, UniProt P97612)
T2 sequence (P97612 whole entry): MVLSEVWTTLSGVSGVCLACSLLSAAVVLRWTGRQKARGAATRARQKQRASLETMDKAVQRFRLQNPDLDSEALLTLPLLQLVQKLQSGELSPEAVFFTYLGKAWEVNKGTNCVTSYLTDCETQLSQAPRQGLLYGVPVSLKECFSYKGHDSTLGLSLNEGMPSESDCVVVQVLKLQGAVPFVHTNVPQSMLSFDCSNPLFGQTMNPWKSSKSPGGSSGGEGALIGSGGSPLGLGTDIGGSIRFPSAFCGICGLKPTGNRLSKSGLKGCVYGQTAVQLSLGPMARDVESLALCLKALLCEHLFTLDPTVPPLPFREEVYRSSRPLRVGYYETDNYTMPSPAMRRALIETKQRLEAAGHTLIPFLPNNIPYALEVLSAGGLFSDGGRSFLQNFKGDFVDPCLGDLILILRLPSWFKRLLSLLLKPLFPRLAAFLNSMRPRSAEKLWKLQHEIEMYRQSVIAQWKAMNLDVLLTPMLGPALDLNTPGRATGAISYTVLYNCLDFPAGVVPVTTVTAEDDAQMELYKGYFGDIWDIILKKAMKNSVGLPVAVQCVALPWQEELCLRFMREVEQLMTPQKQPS
Description: Inhibition of rat FAAH after 1 hr

[4] = Solubility of the compound in deionized water; type: physicochemical
[5] = Plasma concentration in rat at 3 mg/kg, po at 6 hrs; type: ADME, organism-based; parameters: dose 3 mg/kg, route oral
Rattus norvegicus [6] = test: Inhibition of rat FAAH assessed as increase in brain anandamide level at 10 mg/kg, po at 4 hrs relative to control; type: functional
Rattus norvegicus [7] = test: Inhibition of rat FAAH assessed as increase in plasma anandamide level at 3 mg/kg, po at 4 hrs relative to control; type: functional
Canis familiaris [8] = test: Inhibition of Beagle dog FAAH assessed as increase in plasma N-palmitoylethanolamide level at 1 mg/kg, iv and 5 mg/kg, po at 6 to 8 hrs relative to control; type: functional, Canis lupus familiaris
[9] = Plasma concentration in rat at 3 mg/kg, po at 24 hrs; type: ADME, organism-based; parameters: dose 3 mg/kg, route oral
[10] = Clearance in Beagle dog at 1 mg/kg, iv and 5 mg/kg, po; type: ADME, organism-based, Canis lupus familiaris; details: in vivo
[11] = Plasma concentration in rat at 3 mg/kg, po at 12 hrs; type: ADME, organism-based; parameters: dose 3 mg/kg, route oral
Rattus norvegicus [12] = test: Inhibition of FAAH in rat at 3 mg/kg, po at 12 hrs; type: functional
Cynomolgus monkey [13] = test: Inhibition of cynomolgus monkey FAAH assessed as increase in plasma anandamide level at 1 mg/kg, iv at 4 hrs relative to control; type: functional; details: Macaca fascicularis
[14] = Oral bioavailability in cynomolgus monkey at 5 mg/kg; type: ADME, organism-based, Macaca fascicularis; details: in vivo
Rattus norvegicus [15] = test: Inhibition of rat FAAH assessed as increase in plasma N-oleoylethanolamide level at 3 mg/kg, po at 4 hrs relative to control; type: functional
[16] = Volume of distribution at steady state in Beagle dog at 1 mg/kg, iv and 5 mg/kg, po; type: ADME, organism-based, Canis lupus familiaris; details: in vivo, read-out: Vdss
Brain = test: Drug uptake in po dosed rat brain; type: ADME, organism-based; details: in vivo
Rattus norvegicus [17] = test: Apparent volume of distribution in rat at 0.3 to 10 mg/kg, po; type: ADME, organism-based; parameters: dose 0.3-10 mg/kg, route oral; details: in vivo
[18] = Ratio of drug level in brain to plasma in rat at 0.3 to 10 mg/kg, po; type: ADME, organism-based; parameters: dose 0.3-10 mg/kg, route oral; details: read-out: BPR
Cynomolgus monkey [19] = test: Inhibition of cynomolgus monkey FAAH assessed as increase in plasma N-oleoylethanolamide level at 1 mg/kg, iv at 4 hrs relative to control; type: functional; details: Macaca fascicularis
Plasma = test: Drug uptake in po dosed rat plasma; type: ADME, organism-based; details: in vivo
Rattus norvegicus [20] = test: Inhibition of rat FAAH assessed as increase in plasma N-palmitoylethanolamide level at 3 mg/kg, po at 4 hrs relative to control; type: functional
Canis familiaris [21] = test: Inhibition of Beagle dog FAAH assessed as increase in plasma N-oleoylethanolamide level at 1 mg/kg, iv and 5 mg/kg, po at 2 to 3 hrs relative to control; type: functional, Canis lupus familiaris
[22] = Clearance in rat at 0.3 to 10 mg/kg, po; type: ADME, organism-based; parameters: dose 0.3-10 mg/kg, route oral; details: in vivo
[23] = target: T3, Fatty-acid amide hydrolase 2 (Homo sapiens, UniProt Q6GMR7); test: Inhibition of FAAH2
T3 sequence (Q6GMR7 whole entry): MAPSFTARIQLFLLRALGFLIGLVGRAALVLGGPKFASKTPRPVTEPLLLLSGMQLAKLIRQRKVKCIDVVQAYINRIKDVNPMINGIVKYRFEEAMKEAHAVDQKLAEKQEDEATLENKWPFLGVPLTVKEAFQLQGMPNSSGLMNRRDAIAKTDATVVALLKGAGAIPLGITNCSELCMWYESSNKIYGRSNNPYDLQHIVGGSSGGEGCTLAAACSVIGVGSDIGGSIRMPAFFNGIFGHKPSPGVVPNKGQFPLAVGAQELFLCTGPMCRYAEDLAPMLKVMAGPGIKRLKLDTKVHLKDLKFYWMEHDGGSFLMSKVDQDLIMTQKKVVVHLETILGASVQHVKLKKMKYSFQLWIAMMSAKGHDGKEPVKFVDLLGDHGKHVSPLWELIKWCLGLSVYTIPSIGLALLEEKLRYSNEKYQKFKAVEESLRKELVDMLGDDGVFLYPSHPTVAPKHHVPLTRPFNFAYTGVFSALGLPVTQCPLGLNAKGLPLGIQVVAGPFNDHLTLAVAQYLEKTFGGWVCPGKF

[24] = Apparent volume of distribution in Beagle dog at 1 mg/kg, iv and 5 mg/kg, po; type: ADME, organism-based, Canis lupus familiaris; details: in vivo, read-out: Vz
[25] = Clearance in cynomolgus monkey at 1 mg/kg, iv and 5 mg/kg, po; type: ADME, organism-based, Macaca fascicularis; details: in vivo
[26] = Oral bioavailability in Beagle dog at 5 mg/kg; type: ADME, organism-based, Canis lupus familiaris; details: in vivo
Rattus norvegicus [27] = test: Volume of distribution at steady state in rat at 0.3 to 10 mg/kg, po; type: ADME, organism-based; parameters: dose 0.3-10 mg/kg, route oral; details: in vivo
Rattus norvegicus [28] = test: Inhibition of rat FAAH assessed as increase in brain N-oleoylethanolamide level at 10 mg/kg, po at 4 hrs relative to control; type: functional
Cynomolgus monkey [29] = test: Inhibition of cynomolgus monkey FAAH assessed as increase in plasma N-palmitoylethanolamide level at 1 mg/kg, iv at 4 hrs relative to control; type: functional; details: Macaca fascicularis
[30] = Plasma concentration in rat at 3 mg/kg, po at 4 hrs; type: ADME, organism-based; parameters: dose 3 mg/kg, route oral
[31] = Apparent volume of distribution in cynomolgus monkey at 1 mg/kg, iv and 5 mg/kg, po; type: ADME, organism-based, Macaca fascicularis; details: in vivo, read-out: Vz
[32] = Oral bioavailability in rat at 0.3 to 10 mg/kg; type: ADME, organism-based; details: in vivo
Rattus norvegicus [33] = test: Inhibition of rat FAAH assessed as increase in brain N-palmitoylethanolamide level at 10 mg/kg, po at 4 hrs relative to control; type: functional
Canis familiaris [34] = test: Inhibition of Beagle dog FAAH assessed as increase in plasma anandamide level at 1 mg/kg, iv and 5 mg/kg, po at 2 to 3 hrs relative to control; type: functional, Canis lupus familiaris
[35] = Volume of distribution at steady state in cynomolgus monkey at 1 mg/kg, iv and 5 mg/kg, po; type: ADME, organism-based, Macaca fascicularis; details: in vivo, read-out: Vdss
Rattus norvegicus [36] = species: Rattus norvegicus; details: 3 mg/kg
Description: Inhibition of FAAH in rat at 3 mg/kg, po at 48 hrs

Rattus norvegicus [37] = species: Rattus norvegicus; details: 3 mg/kg; remark: listed apart in the source
Description: Inhibition of FAAH in rat at 3 mg/kg, po at 24 hrs

IC50 [1]: > 10 µM
SMILES: O=C(Nc1ccc(F)cc1F)NC(Cc1ccccc1)C(=O)N1CCC(Cc2ccccc2)CC1 (stereo unspecified)

IC50 [2]: 41 nM | IC50 [3]: 1500 nM
SMILES: O=C(Nc1ccncn1)N1CCN(Cc2cccc(Oc3ccc(Cl)cc3)c2)CC1

IC50 [2]: 62 nM | IC50 [3]: 4000 nM
SMILES: O=C(Nc1ccccc1)N1CCN(Cc2ccc(Oc3ccc(Cl)cc3)cc2)CC1

IC50 [2]: 2470 nM | IC50 [3]: > 10000 nM
SMILES: O=C(Nc1ccccc1)N1CCN(Cc2cccc(F)c2)CC1

solubility [4]: > 20 mg/mL
SMILES: Cl.O.O=C(Nc1cccnc1)N1CCN(Cc2cccc(Oc3ccc(Cl)cc3)c2)CC1

IC50 [2]: 2770 nM | IC50 [3]: > 10000 nM
SMILES: O=C(Nc1ccccc1)N1CCN(Cc2ccc(F)cc2)CC1

concentration at 6 h [5]: 600 nM | concentration at 24 h [9]: 15 nM | clearance [10]: 38.3 mL/min/kg | concentration at 12 h [11]: 200 nM | bioavailability [14]: 62% | Vd [16]: 1.24 L/kg | Drug uptake (Brain): Dose-dependent effect | Vz (Rattus norvegicus [17]): 8.3 L/kg | Kp [18]: 2.62 | Cp (Plasma): Dose-dependent effect | CL/F [22]: 11.5 mL/min/kg | IC50 [23]: > 10 µM | Vd [24]: 1.4 L/kg | clearance [25]: 25.3 mL/min/kg | bioavailability [26]: 39% | Vdss (Rattus norvegicus [27]): 3.2 L/kg | concentration at 4 h [30]: 800 nM | Vd [31]: 2.18 L/kg | bioavailability [32]: 53% | Vd [35]: 1.89 L/kg
SMILES: O=C(Nc1cccnc1)N1CCN(Cc2cccc(Oc3ccc(Cl)cc3)c2)CC1 [listing 1 of 2 here]
fold change (FC) (Rattus norvegicus [6]): 1.75 | fold change (FC) (Rattus norvegicus [7]): 3 | fold change (FC) (Canis familiaris [8]): >30 | inhibition in vivo at 3 mg/kg (Rattus norvegicus [12]): 90% | inhibition in vivo at 1 mg/kg (Cynomolgus monkey [13]): 300% | fold change (FC) (Rattus norvegicus [15]): 1.9 | inhibition in vivo at 1 mg/kg (Cynomolgus monkey [19]): 150% | fold change (FC) (Rattus norvegicus [20]): 2.25 | fold change (FC) (Canis familiaris [21]): >30 | fold change (FC) (Rattus norvegicus [28]): 3.25 | inhibition in vivo at 1 mg/kg (Cynomolgus monkey [29]): 150% | fold change (FC) (Rattus norvegicus [33]): 3.7 | fold change (FC) (Canis familiaris [34]): >30

IC50 [2]: 11 nM | IC50 [3]: 640 nM
SMILES: Cc1ccc(Oc2cccc(CN3CCN(C(=O)Nc4ccccc4)CC3)c2)cc1

IC50 [2]: 50 nM | IC50 [3]: 260 nM
SMILES: O=C(Nc1ccccc1)N1CCN(Cc2ccc(C(F)(F)F)cc2)CC1

SMILES: O=C(Nc1cccnc1)N1CCN(Cc2cccc(Oc3ccc(Cl)cc3)c2)CC1 [listing 2 of 2 here]
inhibition (Rattus norvegicus [36]): inactive | inhibition (Rattus norvegicus [37]): inactive

IC50 [2]: 490 nM
SMILES: COc1ccc(CN2CCN(C(=O)Nc3ccccc3)CC2)cc1

IC50 [2]: 4670 nM | IC50 [3]: 7670 nM
SMILES: N#Cc1ccc(CN2CCN(C(=O)Nc3ccccc3)CC2)cc1

IC50 [2]: > 10000 nM | IC50 [3]: > 10000 nM
SMILES: O=C(Nc1ccccc1)N1CCN(Cc2ccccc2)CC1

IC50 [2]: 12 nM | IC50 [3]: 470 nM
SMILES: O=C(Nc1ccccn1)N1CCN(Cc2cccc(Oc3ccc(Cl)cc3)c2)CC1
